Laboratory results reported in ChEMBL document CHEMBL4765391, “Design, synthesis, and Structure-Activity Relationships (SAR) of 3-vinylindazole derivatives as new selective tropomyosin receptor kinases (Trk) inhibitors” (Eur J Med Chem, 2020).

What was measured:
[1] = target: High affinity nerve growth factor receptor (Homo sapiens, UniProt P04629); test: Inhibition of TrkA (unknown origin) using Tyr1 peptide as substrate in presence of ATP measured after 2 hrs by FRET-based Z-Lyte kinase assay
[2] = target: BDNF/NT-3 growth factors receptor (Homo sapiens, UniProt Q16620); test: Inhibition of TrkB (unknown origin) using Tyr1 peptide as substrate in presence of ATP measured after 2 hrs by FRET-based Z-Lyte kinase assay
[3] = system: BaF3; test: Antiproliferative activity against mouse BaF3 cells transfected with wild type ETV6-NTRK2 (unknown origin) assessed as cell viability measured after 72 hrs by Micro plate reader method; conditions: BaF3, 72 h
[4] = system: BaF3; test: Antiproliferative activity against mouse BaF3 cells transfected with wild type ETV6-NTRK2 (unknown origin) harbouring G639R mutation assessed as cell viability measured after 72 hrs by Micro plate reader method; assay type: functional, cell-based; conditions: BaF3, 72 h
[5] = system: BaF3; test: Antiproliferative activity against mouse BaF3 cells assessed as cell viability measured after 72 hrs by Micro plate reader method; assay type: functional, cell-based; conditions: BaF3, 72 h
[6] = system: BaF3; test: Antiproliferative activity against mouse BaF3 cells transfected with wild type CD74-NTRK1 (unknown origin) assessed as cell viability measured after 72 hrs by Micro plate reader method; conditions: BaF3, 72 h
[7] = system: BaF3; test: Antiproliferative activity against mouse BaF3 cells transfected with wild type CD74-NTRK1 (unknown origin) harbouring G667C mutation assessed as cell viability measured after 72 hrs by Micro plate reader method; assay type: functional, cell-based; conditions: BaF3, 72 h
[8] = system: BaF3; test: Antiproliferative activity against mouse BaF3 cells transfected with wild type ETV6-NTRK3 (unknown origin) assessed as cell viability measured after 72 hrs by Micro plate reader method; conditions: BaF3, 72 h
[9] = system: BaF3; test: Antiproliferative activity against mouse BaF3 cells transfected with wild type CD74-NTRK1 (unknown origin) harbouring G595R mutation assessed as cell viability measured after 72 hrs by Micro plate reader method; assay type: functional, cell-based; conditions: BaF3, 72 h
[10] = system: BaF3; test: Antiproliferative activity against mouse BaF3 cells transfected with wild type ETV6-NTRK3 (unknown origin) harbouring G696A mutation assessed as cell viability measured after 72 hrs by Micro plate reader method; assay type: functional, cell-based; conditions: BaF3, 72 h
[11] = system: BaF3; test: Antiproliferative activity against mouse BaF3 cells transfected with wild type ETV6-NTRK3 (unknown origin) harbouring G623R mutation assessed as cell viability measured after 72 hrs by Micro plate reader method; assay type: functional, cell-based; conditions: BaF3, 72 h

Sequence of BDNF/NT-3 growth factors receptor (Q16620 whole entry): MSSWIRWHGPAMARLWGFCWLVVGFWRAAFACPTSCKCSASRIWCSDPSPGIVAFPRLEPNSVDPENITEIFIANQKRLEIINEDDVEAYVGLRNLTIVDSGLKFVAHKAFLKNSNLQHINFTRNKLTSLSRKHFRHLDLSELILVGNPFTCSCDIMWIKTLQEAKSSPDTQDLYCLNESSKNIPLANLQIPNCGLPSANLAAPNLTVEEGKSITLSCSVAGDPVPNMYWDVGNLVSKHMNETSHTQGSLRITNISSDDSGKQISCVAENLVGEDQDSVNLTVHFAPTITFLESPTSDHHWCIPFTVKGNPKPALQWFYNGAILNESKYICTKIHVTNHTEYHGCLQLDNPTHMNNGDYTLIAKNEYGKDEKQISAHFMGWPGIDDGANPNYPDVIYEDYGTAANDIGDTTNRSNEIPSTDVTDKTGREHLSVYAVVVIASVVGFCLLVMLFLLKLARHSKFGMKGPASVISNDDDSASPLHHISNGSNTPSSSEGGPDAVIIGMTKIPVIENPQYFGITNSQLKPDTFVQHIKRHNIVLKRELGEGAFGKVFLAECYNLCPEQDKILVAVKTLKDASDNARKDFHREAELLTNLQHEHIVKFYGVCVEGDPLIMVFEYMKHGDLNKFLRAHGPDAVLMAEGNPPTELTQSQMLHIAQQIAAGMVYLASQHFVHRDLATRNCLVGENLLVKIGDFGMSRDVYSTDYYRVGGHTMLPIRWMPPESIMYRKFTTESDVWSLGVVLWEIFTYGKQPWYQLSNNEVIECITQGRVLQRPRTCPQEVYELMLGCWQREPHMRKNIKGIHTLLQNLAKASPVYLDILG
Sequence of High affinity nerve growth factor receptor (P04629 whole entry): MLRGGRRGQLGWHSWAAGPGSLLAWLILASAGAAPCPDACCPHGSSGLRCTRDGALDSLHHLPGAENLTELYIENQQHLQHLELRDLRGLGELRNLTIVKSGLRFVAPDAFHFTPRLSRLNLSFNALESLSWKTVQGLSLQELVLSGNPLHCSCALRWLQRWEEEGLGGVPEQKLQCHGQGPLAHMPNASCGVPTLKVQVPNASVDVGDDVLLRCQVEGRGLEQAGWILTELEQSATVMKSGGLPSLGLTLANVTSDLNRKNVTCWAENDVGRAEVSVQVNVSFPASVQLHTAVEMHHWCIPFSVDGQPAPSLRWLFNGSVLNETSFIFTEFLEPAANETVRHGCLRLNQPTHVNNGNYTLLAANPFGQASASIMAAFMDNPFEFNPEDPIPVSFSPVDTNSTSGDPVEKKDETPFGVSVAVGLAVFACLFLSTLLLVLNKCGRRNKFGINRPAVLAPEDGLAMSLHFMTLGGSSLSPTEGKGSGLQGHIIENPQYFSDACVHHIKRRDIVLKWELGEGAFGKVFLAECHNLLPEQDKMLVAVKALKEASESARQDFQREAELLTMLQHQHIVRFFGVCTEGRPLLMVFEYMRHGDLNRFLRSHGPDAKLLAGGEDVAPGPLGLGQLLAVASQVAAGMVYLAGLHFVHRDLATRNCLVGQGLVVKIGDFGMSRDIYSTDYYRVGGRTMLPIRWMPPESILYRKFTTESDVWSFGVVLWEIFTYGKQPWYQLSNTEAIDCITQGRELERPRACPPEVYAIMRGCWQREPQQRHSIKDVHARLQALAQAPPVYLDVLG

Row | Compound | IC50 [1] | IC50 [2] | further results
1 | Fc1cc(F)cc(Oc2ccc3[nH]nc(/C=C/c4ccccn4)c3c2)c1 | 23.3 nM | 4 nM | –
2 | CN(c1cc(F)cc(F)c1)c1ccc2[nH]nc(/C=C/c3ccccn3)c2c1 | 40.6 nM | 23.6 nM | –
3 | COc1cc(F)cc(CNc2ccc3[nH]nc(/C=C/c4ccccn4)c3c2)c1 | 3.1 nM | 26.7 nM | –
4 | N#Cc1cc(F)cc(CNc2ccc3[nH]nc(/C=C/c4ccccn4)c3c2)c1 | 3.5 nM | 17.7 nM | –
5 | O=C(Nc1cnn2ccc(N3CCC[C@@H]3c3cc(F)ccc3F)nc12)N1CC[C@H](O)C1 [LAROTRECTINIB] | – | – | IC50 [3]: 40 nM; IC50 [4]: 2240 nM; IC50 [5]: > 10000 nM; IC50 [6]: 16 nM; IC50 [7]: 184 nM; IC50 [8]: 13 nM; IC50 [9]: 539 nM; IC50 [10]: 54 nM; IC50 [11]: 1200 nM
6 | Fc1cc(F)cc(Sc2ccc3[nH]nc(/C=C/c4ccccn4)c3c2)c1 | 23.9 nM | 4.8 nM | –
7 | CN(Cc1cc(F)cc(F)c1)c1ccc2[nH]nc(/C=C/c3ccccn3)c2c1 | 29 nM | 8 nM | –
8 | Fc1cc(F)cc(Cc2ccc3[nH]nc(/C=C/c4ccccn4)c3c2)c1 | 7.6 nM | 1.3 nM | IC50 [3]: 161 nM; IC50 [6]: 133 nM; IC50 [8]: 125 nM
9 | Fc1cc(F)cc(Nc2ccc3[nH]nc(/C=C/c4ccccn4)c3c2)c1 | – | 30.7 nM | –
10 | Fc1ccccc1CNc1ccc2[nH]nc(/C=C/c3ccccn3)c2c1 | 8.8 nM | 36.2 nM | –
11 | Fc1cc(CNc2ccc3[nH]nc(/C=C/c4ccccn4)c3c2)cc(C(F)(F)F)c1 | 76.3 nM | 245 nM | –
12 | Fc1cc(F)cc(COc2ccc3[nH]nc(/C=C/c4ccccn4)c3c2)c1 | 13.2 nM | 1.2 nM | IC50 [3]: 169 nM; IC50 [6]: 133 nM; IC50 [8]: 118 nM
13 | Fc1cc(F)cc(CCc2ccc3[nH]nc(/C=C/c4ccccn4)c3c2)c1 | 3.7 nM | 8.5 nM | –
14 | Fc1cc(F)cc(C#Cc2ccc3[nH]nc(/C=C/c4ccccn4)c3c2)c1 | > 1000 nM | > 1000 nM | –
15 | CN(Cc1ccc2[nH]nc(/C=C/c3ccccn3)c2c1)c1cc(F)cc(F)c1 | 12 nM | 42.5 nM | –
16 | Fc1cc(F)cc(-c2ccc3[nH]nc(/C=C/c4ccccn4)c3c2)c1 | 254 nM | 729 nM | –
17 | O=C(Nc1cc(F)cc(F)c1)c1ccc2[nH]nc(/C=C/c3ccccn3)c2c1 | > 1000 nM | > 1000 nM | –
18 | Fc1cc(Br)cc(CNc2ccc3[nH]nc(/C=C/c4ccccn4)c3c2)c1 | 10.4 nM | 30.6 nM | –
19 | Cc1cc(F)cc(CNc2ccc3[nH]nc(/C=C/c4ccccn4)c3c2)c1 | 10.4 nM | 50.1 nM | –
20 | Fc1cc(F)cc(OCc2ccc3[nH]nc(/C=C/c4ccccn4)c3c2)c1 | 20.9 nM | 7.2 nM | –
21 | O=C(Nc1ccc2[nH]nc(/C=C/c3ccccn3)c2c1)c1cc(F)cc(F)c1 | 189 nM | 244 nM | –
22 | Fc1cc(Cl)cc(CNc2ccc3[nH]nc(/C=C/c4ccccn4)c3c2)c1 | 2 nM | 15.4 nM | –
23 | Fc1ccc(CNc2ccc3[nH]nc(/C=C/c4ccccn4)c3c2)cc1 | 49.3 nM | 78.9 nM | –
24 | C(=C\c1n[nH]c2ccc(NCc3ccccc3)cc12)/c1ccccn1 | 10.6 nM | 1.1 nM | –
25 | Fc1cc(F)cc(CNc2ccc3[nH]nc(/C=C/c4ccccn4)c3c2)c1 | 1.5 nM | 8.3 nM | IC50 [3]: 34 nM; IC50 [5]: 489 nM; IC50 [6]: 35 nM; IC50 [8]: 14 nM
26 | Fc1cc(F)cc(NCc2ccc3[nH]nc(/C=C/c4ccccn4)c3c2)c1 | 10.4 nM | 3.5 nM | –
27 | Fc1cccc(CNc2ccc3[nH]nc(/C=C/c4ccccn4)c3c2)c1 | 5.7 nM | 4.9 nM | –
